Experimental data taken from patent publication US20030165580A1, “Safe pharmaceutical composition for treatment and prevention of gynecological disease” (priority 2002, published 2003).

How the values were obtained:
uterine RNA = assay: Uterine RNA concentration; assay type: in vivo; details: treatment group; absorbance at 260 nm; P < 0.01 vs control
Method: Uterine samples (100 mg) were digested in a 4 M guanidium thiocyanate solution, to which was added 50 μl of 2 M sodium acetate (pH 4.0), 500 μl phenol, and finally 200 μl chloroform/isoamyl alcohol (24:1, v/v) sequentially, with mixing after each addition. The RNA from the resultant solution was pelleted by mixing with 1 vol. isopropanol and incubating at −20° C. for 2 h and spun at 12000×g for 12 min, then resuspended in 0.5% sodium dodecyl sulfate (SDS). The RNA suspension was incubated for 10 min at 65° C. and stored at −20° C. until use. RNA concentration was determined by absorbance intensity at 260 nm.

human blood lymphocytes = assay: Immune function of human blood lymphocytes (3H-TdR incorporation); assay type: cell-based; details: LIG added to culture medium of lymphocytes from old volunteers (60-70 years)
Method: Twenty (20) old volunteers (60-70 years of age) and 10 healthy young persons participated in the experiment. 2 ml of venous blood, heparinized was obtained from each of the participants. The Study of the effects of LIG was carried out by using Eagle's Minimal Essential Medium MEM). MEM was supplemented with 0.125 ml of heat-inactivated fetal calf serum, 100 units of Penicillin and 0.1 mg of streptomycin per ml of medium. Culture medium was divided into treated (LIG) and control group. LIG was added to the culture medium of treatment group. The culture medium of control group was mixed with same volume as that of LIG of normal saline on the 72 hours of culture. The ^3H-thymidine (^3H-TdR) was added into all the cultures (2 μci/ml) for last 12 hours of culture. The cells were harvested on 0.45 μm filters, washed with phosphate buffer (ph 7.4) and bleached with H2O2. The filters were then dried and the incorporation of ^3H-TdR into lymphocytes cell was measured by scintillation counter.

white blood cells = assay: White blood cells in rats treated by cyclophosphamide; assay type: in vivo; details: LIG + cyclophosphamide, 10 days treatment, P < 0.01 vs control
Excerpt: Action of LIG and cyclophosphamide on white blood cells was investigated by means of white blood cells assay. […] Method of testing in animal is standard. The dosage of LIG and cyclophosphamide is the same as in above examples. Time of treatment is 10 days.

[1] = system: bone marrow stem cells (CFU-S); assay: Spleen colony assay, bone marrow stem cells (CFU-S); assay type: in vivo; details: treatment group, mice treated by cyclophosphamide; P < 0.01 vs control
Excerpt: Effects of LIG on hemopoietic system were investigated. […] With increased cells in bone-marrow (BMC), endogenous colonies in spleen and higher ^3H-TdR uptake in marrow and spleen. The level of serum colony stimulating factor (CSF) increased after injection. […] Pharmacological effects as illustrated by the following table: by means of the spleen colony assay technique the action of LIG on bone marrow stem cells (CFU-S)

peritoneal macrophages = assay: Phagocytosis of peritoneal macrophage of mice; assay type: in vivo; details: LIG 5.5 mg/kg intraperitoneally daily for 5 days, cyclophosphamide 4.5 mg/kg; macrophages with phagocytized chick red blood cells per 100 macrophages; P < 0.01 vs control
Method: Male mice weight 18-20 g were used in the experiments and were divided into treated (LIG) and control groups. The dosage of LIG was 5.5 mg/kg injected intraperitoneally. The control mice were injected with same volume of normal saline. These injections were repeated daily for 5 days, both treated and control group were injected intraperitoneally with cyclosphosphamide. The dosage of cyclophosphamide is 4.5 mg/kg. The same experimental procedure for example 3, 4 and 5 in testing mice were used. Added 0.02 ml of 5% washed chick red blood cell suspension to 0.5 ml of the peritoneal exudates. Shook gently to mix and incubate at 37° C. for 5 minutes. Dipped two cover slips, closed to each other, in the above mixture and incubated for 30 minutes for the migration of the macrophages along the cover slips, fixed and stained with Sharma stain. Examined microscopically for: Phagocytic rate—number of macrophages with phagocytized chick red blood cells per 100 macrophages counted. Method of animal model is regular.

lymphocytes = assay: Lymphoblastoid transformation test (3H-TdR liquid scintillation); assay type: in vivo, mice; details: treatment group, P < 0.01 vs control
Method: By means of ^3H-TdR liquid scintillation assay technique, the action of LIG on lymphoblastoid transformation was investigated method:
(1) Experimental procedure of animal is the same as in Example 2.
(2) Lemphoblastoid transformation test:
a. Culture media—RPMI 1640, medium 199 minimal essential medium (Eagle).
b. Buffer—Hepes buffer, the final concentration at 37° C. was 25 mM, to maintain the pH of the medium at 7.31.
c. Serum—generally 15-205 fetal bovine serum was incorporated, for lymphocytes from mice, 5% was used.
d. Gaseous phase—5% CO2 in air.
e. Cell concentration—generally 1-2×10^6/ml.
f. Stimulants—20 μl/ml for phytohemagglutinin containing polysaccharide (PHA-M) or 10 μl/ml for polysaccharide-free purified phytohemagglutinin (PHA-P).
a. The conditions of cell culture are same as above. ^3H-TdR was added after 48 hours of incubation at a final concentration of 1 μCi/ml and continued the incubation for 24 hours.
b. Washed the cells twice with cold normal saline and the erythrocytes were lysed. The intact lymphocytes were again washed once with cold saline. Spun down the lymphocytes and added 2 ml of 10% trichloroacetic acid to precipitate the protein. Washed twice with normal saline. Added 2 ml of ethanol:ether (1:1) to wash once. […]
c. Added 4 ml of scintillation fluid to 0.1 ml of the final sample and counted in a liquid scintillation counter.

interleukin-2 (rIL-2) = assay: Interleukin-2 (rIL-2) determination; details: treatment group
Excerpt: The methods of determination rIL-2 were regular.

uterine tissues = assay: DNA synthesis of uterine (3H-TdR) in cycloheximide-injured rats; assay type: in vivo, Sprague-Dawley rats; details: treatment group: cycloheximide + LIG, female rats
Method: Female Sprague-Dawley rats at 20 days of age, allowed free access to food and water and, as immature rats, used by age 23 days. Castrate rats were the same strain. Rats of normal group were administered in saline solution by intraperitoneal injection. Rats of control group were injected cycloheximide. Rats of treatment group injected cycloherimide+LIG. At the indicated times the rats were sacrificed by decapitation. The entire uterus from oviduct to cervix was removed, quickly dissected free of fat and connective tissue, blotted on hard filter paper, and weighed. Each uterus was minced with a scissors into a 12-ml polycarbonate tube and homogenized, 10 sec with ice cooling in 10 mM Tris.HCl, pH 7.2, buffer (10 mg of tissue per ml unless otherwise stated), with homogenizer. Aliquets used for DNA analysis. Determination of DNA is used methods of ^3H-TdR.

uterine peroxidase = assay: Uterine peroxidase activity (gene product of uterine) in cycloheximide-injured rats; assay type: in vivo, Sprague-Dawley rats; details: treatment group: cycloheximide + LIG, intraperitoneal injection, female rats; P < 0.001 vs control
Method: It is known that peroxidase induction is a useful market for estrogen-effected growth responses in uterine. The uterine peroxidase is a useful gene product for assessing effect of hormones on uterine. […] Female Sprague-Dawley rats at 20 days of age, allowed free access to food and water. Castrate rats were the same strain. Rats of normal group were administered in saline solution by intraperitoneal injection. Rats of control group were injected cycloheximide. Rats of treatment group injected cycloherimide+LIG. At the indicated times the rats were sacrificed by decapitation. The entire uterus from oviduct to cervix was removed, quickly dissected free of fat and connective tissue, blotted on hard filter paper, and weighed. Each uterus was minced with a scissors into a 12-ml polycarbonate tube and homogenized, 10 sec with ice cooling in 10 mM Tris.HCl, pH 7.2, buffer (25 mg of tissue per ml unless otherwise stated), with homogenizer. The homogenates were centrifuged for 45 min at 39,000×g at 2°. The hypotonic supernatant fraction contains no peroxidase activity. […] The reaction was started by the addition of enzyme (extract), and initial rates of guaiacol oxidation were determined from the increase in absorbance at 470 nm for the first minutes.

hemopoietic system = assay: Recovery of hemopoiesis in mice treated by cyclophosphamide; assay type: in vivo
Excerpt: Effects of LIG on hemopoietic system were investigated. […] With increased cells in bone-marrow (BMC), endogenous colonies in spleen and higher ^3H-TdR uptake in marrow and spleen. The level of serum colony stimulating factor (CSF) increased after injection.

[2] = mice treated by cyclophosphamide

Compound: CCC/C=C1\OC(=O)C2=C1CCC=C2 [LIG, ligustilide]
- RNA units (uterine RNA): 0.92 ± 0.12
- 3H-TdR incorporation into lymphocytes, CPM (human blood lymphocytes): 2180 ± 360 CPM
- White blood cells (white blood cells): 13.8 ± 2.0 × 10^3/cm^3
- Mean (CFU-S ± SD) [1]: 28.5 ± 3.5
- Phagocytic (rate ± SD) (peritoneal macrophages): 26.8 ± 3.1
- Lymphoblastoid transformation CPM ± SD (lymphocytes): 1650 ± 270 CPM
- IL-2 (interleukin-2 (rIL-2)): 75.6 ± 8.9 U/ml
- DNA synthesis (uterine tissues): 1052 ± 110 CPM/10 g uterine tissues
- Peroxidase activity (uterine peroxidase): 7.6 ± 0.8 Enzyme units/10 mg uterus
- Level of serum colony stimulating factor (CSF) (hemopoietic system; after injection): increased
- 3H-TdR uptake in marrow and spleen (hemopoietic system; [2]): higher
- Cells in bone-marrow (BMC) (hemopoietic system; [2]): increased
- Recovery rate of hemopoieses (hemopoietic system; [2]): markedly improve
